In ChEMBL document CHEMBL1150977, “A quantitative analysis of kinase inhibitor selectivity” (Nat Biotechnol, 2008):

What was measured:
[1] = target: Serine/threonine-protein kinase PLK3 (Homo sapiens, UniProt Q9H4B4)
[2] = target: Macrophage colony-stimulating factor 1 receptor (Homo sapiens, UniProt P07333)
[3] = target: Proto-oncogene tyrosine-protein kinase receptor Ret (Homo sapiens, UniProt P07949, M918T)
TGF-beta receptor type-1 = target: T1, TGF-beta receptor type-1 (Homo sapiens, UniProt P36897)
T1 sequence (P36897 whole entry): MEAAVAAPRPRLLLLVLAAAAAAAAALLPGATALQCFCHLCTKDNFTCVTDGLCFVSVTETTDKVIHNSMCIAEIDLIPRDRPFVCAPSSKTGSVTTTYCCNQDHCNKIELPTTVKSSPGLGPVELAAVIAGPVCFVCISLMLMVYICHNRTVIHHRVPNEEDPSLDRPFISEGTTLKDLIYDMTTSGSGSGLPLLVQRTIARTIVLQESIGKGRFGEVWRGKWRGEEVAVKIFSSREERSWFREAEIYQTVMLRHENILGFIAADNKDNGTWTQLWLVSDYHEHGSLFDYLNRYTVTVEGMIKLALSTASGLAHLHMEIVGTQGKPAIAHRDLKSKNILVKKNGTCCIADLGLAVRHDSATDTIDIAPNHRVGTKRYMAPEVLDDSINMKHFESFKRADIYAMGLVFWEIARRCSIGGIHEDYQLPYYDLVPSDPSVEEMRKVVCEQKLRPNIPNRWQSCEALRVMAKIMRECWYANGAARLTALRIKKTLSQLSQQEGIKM

[4] = target: T2, Serine/threonine-protein kinase Chk1 (Homo sapiens, UniProt O14757)
T2 sequence (O14757 whole entry): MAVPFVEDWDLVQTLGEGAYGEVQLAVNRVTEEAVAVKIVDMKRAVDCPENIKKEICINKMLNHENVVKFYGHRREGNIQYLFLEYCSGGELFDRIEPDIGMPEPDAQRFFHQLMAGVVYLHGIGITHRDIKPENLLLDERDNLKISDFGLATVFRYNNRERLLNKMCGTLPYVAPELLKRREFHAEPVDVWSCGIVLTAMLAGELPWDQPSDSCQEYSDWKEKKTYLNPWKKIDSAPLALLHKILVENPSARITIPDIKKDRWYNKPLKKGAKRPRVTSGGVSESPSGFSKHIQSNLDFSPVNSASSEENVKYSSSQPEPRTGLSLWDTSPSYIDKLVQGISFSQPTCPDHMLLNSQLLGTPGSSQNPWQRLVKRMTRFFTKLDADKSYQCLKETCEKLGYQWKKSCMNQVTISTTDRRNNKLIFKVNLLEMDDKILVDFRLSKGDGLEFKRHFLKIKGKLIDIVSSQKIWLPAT

[5] = target: Dual specificity tyrosine-phosphorylation-regulated kinase 1B (Homo sapiens, UniProt Q9Y463)
Ephrin type-A receptor 5 = Ephrin type-A receptor 5 (Homo sapiens, UniProt P54756)
Focal adhesion kinase 1 = Focal adhesion kinase 1 (Homo sapiens, UniProt Q05397)
[6] = target: Phosphorylase b kinase gamma catalytic chain, skeletal muscle/heart isoform (Homo sapiens, UniProt Q16816)
[7] = target: Serine/threonine-protein kinase SIK2 (Homo sapiens, UniProt Q9H0K1)
[8] = target: Citron Rho-interacting kinase (Homo sapiens, UniProt O14578)
[9] = target: T3, NUAK family SNF1-like kinase 2 (Homo sapiens, UniProt Q9H093)
T3 sequence (Q9H093 whole entry): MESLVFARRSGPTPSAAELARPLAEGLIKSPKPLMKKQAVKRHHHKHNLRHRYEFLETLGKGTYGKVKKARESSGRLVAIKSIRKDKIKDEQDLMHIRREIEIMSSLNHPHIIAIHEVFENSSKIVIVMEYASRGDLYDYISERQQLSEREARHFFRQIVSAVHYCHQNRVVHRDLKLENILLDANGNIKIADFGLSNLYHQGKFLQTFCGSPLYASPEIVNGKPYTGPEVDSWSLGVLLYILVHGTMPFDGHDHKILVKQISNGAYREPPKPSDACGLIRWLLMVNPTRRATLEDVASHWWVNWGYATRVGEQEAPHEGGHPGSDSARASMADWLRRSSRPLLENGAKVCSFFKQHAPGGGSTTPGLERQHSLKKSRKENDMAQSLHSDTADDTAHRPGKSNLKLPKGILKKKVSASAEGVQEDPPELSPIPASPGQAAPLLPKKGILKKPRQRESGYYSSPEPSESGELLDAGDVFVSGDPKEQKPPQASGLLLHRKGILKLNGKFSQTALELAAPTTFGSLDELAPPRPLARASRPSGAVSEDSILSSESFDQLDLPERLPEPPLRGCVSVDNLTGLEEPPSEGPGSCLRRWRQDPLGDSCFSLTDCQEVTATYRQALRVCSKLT

[10] = target: Cyclin-dependent kinase 19 (Homo sapiens, UniProt Q9BWU1)
Chain of Cyclin-dependent kinase 19 (Q9BWU1 whole entry): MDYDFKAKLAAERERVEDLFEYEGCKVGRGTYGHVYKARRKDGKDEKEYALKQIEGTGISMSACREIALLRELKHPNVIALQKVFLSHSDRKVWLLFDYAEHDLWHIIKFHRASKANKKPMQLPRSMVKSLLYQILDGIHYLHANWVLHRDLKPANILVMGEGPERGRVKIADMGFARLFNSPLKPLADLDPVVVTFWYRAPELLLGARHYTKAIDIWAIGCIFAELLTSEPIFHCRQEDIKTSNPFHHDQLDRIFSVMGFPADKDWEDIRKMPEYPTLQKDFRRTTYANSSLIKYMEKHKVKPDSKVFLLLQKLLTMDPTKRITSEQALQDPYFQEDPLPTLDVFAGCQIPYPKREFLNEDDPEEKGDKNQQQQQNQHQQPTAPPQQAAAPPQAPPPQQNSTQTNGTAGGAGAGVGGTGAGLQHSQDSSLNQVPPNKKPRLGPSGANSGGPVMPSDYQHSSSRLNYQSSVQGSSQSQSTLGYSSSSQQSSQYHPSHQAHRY

Chain of Citron Rho-interacting kinase (O14578 whole entry): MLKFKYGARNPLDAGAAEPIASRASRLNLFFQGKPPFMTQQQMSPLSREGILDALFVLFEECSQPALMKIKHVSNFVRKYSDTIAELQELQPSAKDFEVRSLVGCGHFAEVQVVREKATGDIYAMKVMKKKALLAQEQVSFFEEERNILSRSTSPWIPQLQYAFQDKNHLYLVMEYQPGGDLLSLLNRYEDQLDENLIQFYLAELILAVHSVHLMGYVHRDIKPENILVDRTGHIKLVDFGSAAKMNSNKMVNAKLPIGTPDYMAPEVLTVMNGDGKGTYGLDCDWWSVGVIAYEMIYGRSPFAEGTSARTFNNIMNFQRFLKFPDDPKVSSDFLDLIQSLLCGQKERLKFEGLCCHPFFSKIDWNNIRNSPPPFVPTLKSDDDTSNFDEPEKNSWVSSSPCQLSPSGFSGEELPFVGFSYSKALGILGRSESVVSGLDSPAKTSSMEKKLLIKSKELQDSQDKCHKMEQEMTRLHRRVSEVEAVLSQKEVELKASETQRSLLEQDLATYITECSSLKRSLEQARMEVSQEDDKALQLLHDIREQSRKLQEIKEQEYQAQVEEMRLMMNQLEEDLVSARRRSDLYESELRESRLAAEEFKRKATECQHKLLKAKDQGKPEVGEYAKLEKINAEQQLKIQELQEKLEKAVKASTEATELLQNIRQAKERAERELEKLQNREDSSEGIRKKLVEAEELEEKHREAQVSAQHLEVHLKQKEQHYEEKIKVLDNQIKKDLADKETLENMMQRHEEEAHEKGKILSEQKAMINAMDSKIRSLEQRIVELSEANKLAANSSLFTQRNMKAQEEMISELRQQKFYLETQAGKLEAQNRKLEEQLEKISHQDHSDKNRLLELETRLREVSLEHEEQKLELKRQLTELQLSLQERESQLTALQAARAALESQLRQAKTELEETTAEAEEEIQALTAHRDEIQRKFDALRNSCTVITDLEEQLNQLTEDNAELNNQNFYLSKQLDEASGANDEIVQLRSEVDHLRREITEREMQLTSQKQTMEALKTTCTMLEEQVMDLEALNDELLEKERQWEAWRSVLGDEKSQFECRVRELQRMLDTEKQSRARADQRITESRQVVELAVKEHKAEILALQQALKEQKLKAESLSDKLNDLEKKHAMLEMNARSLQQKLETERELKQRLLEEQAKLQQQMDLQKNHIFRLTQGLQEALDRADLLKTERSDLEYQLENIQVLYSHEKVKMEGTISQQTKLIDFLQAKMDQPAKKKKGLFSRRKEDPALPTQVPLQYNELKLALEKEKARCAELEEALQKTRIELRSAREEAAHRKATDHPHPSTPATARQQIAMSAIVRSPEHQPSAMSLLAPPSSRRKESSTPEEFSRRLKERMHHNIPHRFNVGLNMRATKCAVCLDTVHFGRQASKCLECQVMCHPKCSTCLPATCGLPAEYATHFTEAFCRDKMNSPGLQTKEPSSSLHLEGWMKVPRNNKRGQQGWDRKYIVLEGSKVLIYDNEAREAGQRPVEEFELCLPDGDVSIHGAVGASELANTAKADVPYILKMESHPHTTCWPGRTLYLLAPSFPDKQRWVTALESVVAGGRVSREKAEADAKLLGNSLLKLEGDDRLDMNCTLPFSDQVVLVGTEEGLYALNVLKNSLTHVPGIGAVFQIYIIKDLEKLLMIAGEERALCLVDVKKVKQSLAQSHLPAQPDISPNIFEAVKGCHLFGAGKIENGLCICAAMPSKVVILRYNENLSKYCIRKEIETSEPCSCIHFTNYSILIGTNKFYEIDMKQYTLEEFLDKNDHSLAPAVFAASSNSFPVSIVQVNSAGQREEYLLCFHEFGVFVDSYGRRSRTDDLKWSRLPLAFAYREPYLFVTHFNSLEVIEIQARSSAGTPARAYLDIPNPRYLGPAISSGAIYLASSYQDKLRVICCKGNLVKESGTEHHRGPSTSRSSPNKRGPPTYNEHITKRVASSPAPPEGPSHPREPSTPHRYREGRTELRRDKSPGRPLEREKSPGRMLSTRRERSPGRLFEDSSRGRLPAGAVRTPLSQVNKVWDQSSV
Chain of Ephrin type-A receptor 5 (P54756 whole entry): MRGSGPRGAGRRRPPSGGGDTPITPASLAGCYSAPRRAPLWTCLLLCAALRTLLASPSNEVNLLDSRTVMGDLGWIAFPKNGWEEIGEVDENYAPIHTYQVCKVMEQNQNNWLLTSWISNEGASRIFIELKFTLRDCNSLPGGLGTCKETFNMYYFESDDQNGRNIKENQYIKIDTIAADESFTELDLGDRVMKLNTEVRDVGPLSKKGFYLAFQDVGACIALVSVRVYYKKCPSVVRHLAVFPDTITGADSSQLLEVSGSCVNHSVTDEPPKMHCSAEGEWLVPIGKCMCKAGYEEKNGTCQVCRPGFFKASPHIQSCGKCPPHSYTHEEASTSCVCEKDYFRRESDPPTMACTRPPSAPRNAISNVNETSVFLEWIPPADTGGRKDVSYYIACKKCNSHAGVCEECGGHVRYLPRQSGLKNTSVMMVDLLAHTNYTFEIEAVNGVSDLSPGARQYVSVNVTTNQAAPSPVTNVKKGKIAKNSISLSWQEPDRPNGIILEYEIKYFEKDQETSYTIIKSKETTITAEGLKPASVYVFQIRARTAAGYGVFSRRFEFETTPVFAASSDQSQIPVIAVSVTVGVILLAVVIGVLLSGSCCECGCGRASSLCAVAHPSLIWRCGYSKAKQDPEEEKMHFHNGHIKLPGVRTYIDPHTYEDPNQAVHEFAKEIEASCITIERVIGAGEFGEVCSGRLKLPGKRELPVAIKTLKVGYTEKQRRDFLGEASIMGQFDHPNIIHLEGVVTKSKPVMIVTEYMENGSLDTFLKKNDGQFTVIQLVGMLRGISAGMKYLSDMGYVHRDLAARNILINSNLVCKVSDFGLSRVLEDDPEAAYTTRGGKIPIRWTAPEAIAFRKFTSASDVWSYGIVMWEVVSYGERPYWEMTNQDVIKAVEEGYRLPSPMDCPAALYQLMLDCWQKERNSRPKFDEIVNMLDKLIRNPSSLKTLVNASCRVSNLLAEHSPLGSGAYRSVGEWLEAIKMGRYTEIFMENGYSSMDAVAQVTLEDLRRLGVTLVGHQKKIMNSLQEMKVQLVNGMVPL
Chain of Serine/threonine-protein kinase PLK3 (Q9H4B4 whole entry): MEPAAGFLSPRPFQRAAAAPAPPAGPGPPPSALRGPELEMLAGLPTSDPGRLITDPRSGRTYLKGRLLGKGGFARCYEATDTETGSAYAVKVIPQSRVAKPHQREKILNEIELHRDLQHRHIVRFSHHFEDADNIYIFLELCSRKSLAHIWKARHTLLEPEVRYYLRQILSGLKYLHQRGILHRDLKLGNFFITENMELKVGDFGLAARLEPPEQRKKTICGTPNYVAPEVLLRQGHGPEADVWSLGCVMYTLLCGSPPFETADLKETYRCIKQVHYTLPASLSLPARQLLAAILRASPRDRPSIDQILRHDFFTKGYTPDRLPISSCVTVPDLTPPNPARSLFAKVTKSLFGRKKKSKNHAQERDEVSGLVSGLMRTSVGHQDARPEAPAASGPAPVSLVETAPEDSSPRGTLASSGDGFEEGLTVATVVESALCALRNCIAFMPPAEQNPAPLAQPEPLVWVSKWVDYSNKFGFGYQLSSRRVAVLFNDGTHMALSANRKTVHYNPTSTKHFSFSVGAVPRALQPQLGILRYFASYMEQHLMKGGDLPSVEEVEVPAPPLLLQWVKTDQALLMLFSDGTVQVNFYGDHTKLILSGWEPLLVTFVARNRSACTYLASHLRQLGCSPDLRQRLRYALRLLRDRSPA
Chain of Dual specificity tyrosine-phosphorylation-regulated kinase 1B (Q9Y463 whole entry): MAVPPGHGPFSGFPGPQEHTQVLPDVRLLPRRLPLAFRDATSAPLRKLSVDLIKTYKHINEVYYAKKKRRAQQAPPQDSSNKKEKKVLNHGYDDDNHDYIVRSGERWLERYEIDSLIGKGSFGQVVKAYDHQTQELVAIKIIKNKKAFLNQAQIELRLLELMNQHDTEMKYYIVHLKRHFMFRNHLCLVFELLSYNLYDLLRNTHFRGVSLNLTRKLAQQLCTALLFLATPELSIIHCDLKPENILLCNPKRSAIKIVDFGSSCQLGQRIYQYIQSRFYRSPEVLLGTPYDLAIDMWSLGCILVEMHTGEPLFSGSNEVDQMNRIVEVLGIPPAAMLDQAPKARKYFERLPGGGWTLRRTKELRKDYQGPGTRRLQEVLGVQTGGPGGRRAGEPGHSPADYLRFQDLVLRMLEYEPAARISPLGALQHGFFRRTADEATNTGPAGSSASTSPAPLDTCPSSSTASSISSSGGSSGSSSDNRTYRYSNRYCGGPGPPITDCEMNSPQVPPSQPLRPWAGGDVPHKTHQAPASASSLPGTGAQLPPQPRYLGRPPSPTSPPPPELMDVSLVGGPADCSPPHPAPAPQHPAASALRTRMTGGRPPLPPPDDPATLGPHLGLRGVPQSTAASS

SMILES | Kd [1] [µM] | Kd [2] [µM] | Kd [3] [µM] | Kd (TGF-beta receptor type-1) [µM] | Kd [4] [µM] | Kd [5] [µM] | Kd (Ephrin type-A receptor 5) [µM] | Kd (Focal adhesion kinase 1) [µM] | Kd [6] [µM] | Kd [7] [µM] | Kd [8] [µM] | Kd [9] [µM] | Kd [10] [µM]
CCN1CCN(Cc2ccc(NC(=O)Nc3ccc(Oc4cc(NC)ncn4)cc3)cc2C(F)(F)F)CC1 [AST-487] | > 10 | – | – | – | – | – | – | – | – | – | – | – | –
COCC(=O)NC/C=C/c1ccc2ncnc(Nc3ccc(Oc4ccc(C)nc4)c(C)c3)c2c1 [CP-724714] | > 10 | > 10 | > 10 | > 10 | > 10 | > 10 | > 10 | > 10 | > 10 | > 10 | > 10 | > 10 | –
Nc1nc(Nc2ccc(S(N)(=O)=O)cc2)nn1C(=O)c1c(F)cccc1F [JNJ-7706621] | – | – | – | > 10 | – | > 10 | > 10 | – | > 10 | – | > 10 | 0.026 | > 10
CCOc1cc2ncc(C#N)c(Nc3ccc(F)c(Cl)c3)c2cc1NC(=O)/C=C/CN(C)C [PELITINIB] | > 10 | – | > 10 | > 10 | 1.9 | – | > 10 | – | – | – | 0.31 | 2.7 | > 10
Oc1ccc(-c2nc(-c3ccncc3)c(-c3ccc(F)cc3)[nH]2)cc1 [SB-202190] | > 10 | > 10 | > 10 | > 10 | > 10 | > 10 | > 10 | > 10 | > 10 | > 10 | 0.51 | > 10 | > 10
NC(=O)c1ccc(-c2nc(-c3ccc4c(c3)OCO4)c(-c3ccccn3)[nH]2)cc1 [SB-431542] | > 10 | > 10 | > 10 | – | > 10 | > 10 | > 10 | > 10 | > 10 | > 10 | > 10 | > 10 | > 10
